{
  "source": "patent US20080076824A1",
  "about": "“Compounds That Inhibit Replication Of Human Immunodeficiency Virus” (priority 2004, published 2008)",
  "key": {"in vitro": {"test": "in vitro", "conditions": "human"}, "[1]": {"test": "Cytotoxicity (CC50) in MT-4 cells", "format": "cell-based", "conditions": "human, MT-4 cells"}, "C8166 cells": {"system": "C8166 cells", "test": "Cytotoxicity (CC50) in C8166 cells", "format": "cell-based"}, "[2]": {"test": "Conversion of [14C]G-NH2 to Metabolite X by sera of different animals", "format": "in vitro ADME", "description": "Next, an evaluation of sera obtained from other animals was analyzed for their ability to convert G-NH2 to modified G-NH2. Serum obtained from pigs (PS), mice (MS), dogs (CS), cats (FS), horse (ES), and monkey (SS) was incubated with HPLC purified G-NH2 and at 15 minutes, 1 hour, 6 hours, and/or 24 hours an aliquot of the mixture was removed and analyzed by cation exchange HPLC, as described above. Approximately a 10% dilution of serum in PBS was used.\nApproximately, 0.1 μCi [^14C]G-NH2 ([…]) is added to a reaction mixture containing 10% serum in phosphate-buffered saline (PBS) (pH 7.5) (total volume: 100 μl). The reaction was carried out for different time periods. Sera, used in the study were from human, murine (mouse and rat), avian (chicken), rabbit, simian, feline, canine, porcine, equine or bovine (cow) origin. At the completion of the time period for each reaction, approximately 200 μl cold methanol was added to stop the reaction and the samples were placed on ice for 10 minutes. Subsequently, the samples were subjected to centrifugation (5 min, 15000 rpm). The supernatants were then injected on a Cation Exchange Column (Whatman) (Partisphere-SCX) and G-NH2 and Metabolite X were separated on a gradient of ammonium phosphate buffer 5 mM pH 3.5 (Buffer A) and ammonium phosphate buffer 0.300 M pH 3.5 (Buffer B) [10 min A+6 min to 83% B+17% H2O) (C)+2 min C-+6 min to A)]. […]"}, "[3]": {"test": "Conversion of [14C]G-NH2 by Phaseolus vulgaris root nodule extract", "format": "biochemical", "conditions": "overnight, 37° C.", "description": "An extract from Phaseolus vulgaris root nodule was prepared as follows: approximately 20 g of root nodules of 3-4 week old kidney beans (Phaseolus vulgaris) were removed, washed with potassium phosphate buffer 50 mM pH 8.0 and homogenized with 30 ml buffer. Then, the homogenate was sonicated (3×20 sec) on ice, and centrifuged for 15 min, 4° C. at 3,000 rpm. The supernatant was then centrifuged at 15,000 rpm during 20 min at 4° C., aliquoted and stored at −80° C. before use. To the reaction mixture (50 mM potassium phosphate buffer pH 8.0) was added: 0.1 μCi [^14C]G-NH2 and 50 μl extract supernatant (100%, 50% and 20%) and 50 μl buffer. The reaction proceeded overnight (˜18 hrs) at 37° C. Then, methanol was added (200 μl) to stop the reaction and the reaction mixture was subjected to cation exchange column chromatography, as described above. A reaction mixture containing bovine serum was also evaluated as a control."}, "[4]": {"test": "Conversion of radiolabeled G-NH2 to modified G-NH2 by human sera", "format": "in vitro ADME", "conditions": "10% human serum in PBS, 37° C., 24 hours, each of 10 samples", "description": "(§1) Several lots of human sera and fetal bovine sera were analyzed for their ability to convert G-NH2 to modified G-NH2. Radiolabeled cation exchange HPLC purified G-NH2 (see EXAMPLE 3) was incubated with the various sera at a 10% final concentration in PBS at 37° C. for 15 minutes and 1, 6, 24, or 72 hours. Subsequently, the amount of radiolabeled modified G-NH2 was evaluated using the cation exchange HPLC approach described above."}, "[5]": {"test": "Conversion of G-NH2 to modified G-NH2 by pig plasma (cation exchange HPLC)", "format": "in vitro ADME", "conditions": "37° C.", "description": "(§2) Various concentrations of G-NH2 were mixed with either 90% pig plasma or 90% dialyzed pig plasma in PBS and the reactions were conducted at 37° C. for 24 hours. Subsequently, aliquots of the mixtures were separated by cation exchange HPLC, as described previously, and the conversion of G-NH2 to modified G-NH2 was evaluated. […] Saturation of the enzyme activity of cofactor(s) in pig plasma (90% in PBS) occurred between 1,000 μM and 10,000 μM G-NH2."}, "HIV (SF2 virus)": {"system": "HIV (SF2 virus)", "test": "HIV infectivity assay, SF2-infected H9 cells, visible syncytia", "format": "cell-based", "conditions": "for Visible syncytia: H9/SF2, day 11"}, "MT-4 cells": {"system": "MT-4 cells", "test": "Cytotoxicity (CC50) in MT-4 cells", "format": "cell-based"}, "[6]": {"test": "Conversion of radiolabeled G-NH2 to modified G-NH2 by fetal bovine sera", "format": "in vitro ADME", "conditions": "10% fetal bovine sera in PBS, 37° C.", "description": "as §1"}, "[7]": {"test": "Conversion of G-NH2 to modified G-NH2 by dialyzed pig plasma (cation exchange HPLC)", "format": "in vitro ADME", "conditions": "for conversion to modified G-NH2 (24 hr) (percent conversion) Dialysed Pig plasma: 37° C.; for Percent conversion / μM formation: 6 hr", "description": "In still another set of experiments, a first step isolation of the cofactor present in pig plasma was performed and the enzymatic activity of the isolated product was compared to the enzymatic activity of the crude product. An aliquot of pig plasma was placed in dialysis tubing (MW cut off 10,000) and the serum was subjected to dialysis. Subsequently, the pig plasma dialysate was evaluated for the ability to convert G-NH2 to modified G-NH2.\nas §2\nIn still another set of experiments, the saturation point of the isolated cofactor found in pig plasma was more closely scrutinized. Dialyzed pig plasma (90% in PBS) was mixed with concentrations of G-NH2 between […] and 10,000 μM. Subsequently, the mixtures were incubated at 37° C. for 6 hours and aliquots were separated by cation exchange HPLC, as before. The results shown in TABLE 8 confirmed that the saturation point of the cofactor(s) in pig plasma was near 2,000 μM G-NH2."}, "[8]": {"biological_target": "glycine oxidase from Bacillus subtilis (Bacillus subtilis, UniProt O31616)", "sequence (O31616 whole entry)": "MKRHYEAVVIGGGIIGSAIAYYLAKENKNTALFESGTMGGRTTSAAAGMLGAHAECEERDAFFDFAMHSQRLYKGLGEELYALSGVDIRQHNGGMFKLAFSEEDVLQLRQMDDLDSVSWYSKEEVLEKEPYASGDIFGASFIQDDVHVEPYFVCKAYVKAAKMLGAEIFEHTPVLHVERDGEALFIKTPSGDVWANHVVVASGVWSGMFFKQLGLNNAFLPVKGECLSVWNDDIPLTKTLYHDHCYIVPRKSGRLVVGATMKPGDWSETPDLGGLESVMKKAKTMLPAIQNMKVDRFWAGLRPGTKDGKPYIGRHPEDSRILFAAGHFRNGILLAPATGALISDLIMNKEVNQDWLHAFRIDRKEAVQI"}, "[9]": {"conditions": "2,000 μM G-NH2, dialyzed pig plasma 90% in PBS"}, "[10]": {"conditions": "4,000 μM G-NH2, dialyzed pig plasma 90% in PBS"}, "[11]": {"conditions": "6,000 μM G-NH2, dialyzed pig plasma 90% in PBS"}, "[12]": {"conditions": "8,000 μM G-NH2, dialyzed pig plasma 90% in PBS"}, "[13]": {"conditions": "10,000 μM G-NH2, dialyzed pig plasma 90% in PBS"}},
  "note": "Structures can show the parent of a compound that is named as a salt.",
  "data": [
    {"smiles": "NC(=O)C(N)O", "note": "(stereo not drawn) [AlphaHGA, α-Hydroxy-glycinamide hydrochloride]", "values": [
      {"measurement": "CC50 at 96 hr", "setting": "in vitro", "result": "606 ± 23", "unit": "µM"},
      {"measurement": "CC50", "setting": "[1]", "result": "372 ± 107", "unit": "µM"}
    ]},
    {"smiles": "NCC(N)=O", "note": "[G-NH2, glycinamide]", "values": [
      {"measurement": "CC50", "setting": "C8166 cells", "result": "> 2000", "unit": "µM"},
      {"measurement": "conversion to modified glycinamide", "setting": "[2]; human, mouse, rat, and avian sera", "result": "did not effectively catalyze"},
      {"measurement": "conversion to Metabolite X", "setting": "[2]; rabbit, simian, feline, canine, porcine, equine and bovine sera", "result": "readily converted to Metabolite X"},
      {"measurement": "conversion of glycinamide to modified glycinamide", "setting": "[3]", "result": "efficiently converts glycinamide to modified glycinamide"},
      {"measurement": "conversion of G-NH2 to modified G-NH2", "setting": "[4]", "result": "less than 10%"},
      {"measurement": "conversion to modified G-NH2 (24 hr) (percent conversion) Pig plasma", "setting": "[5]; 18 μM G-NH2, plasma 90% in PBS", "result": 99.7, "unit": "%"},
      {"measurement": "conversion to modified G-NH2 (24 hr) (percent conversion) Pig plasma", "setting": "[5]; 100 μM G-NH2, plasma 90% in PBS", "result": 99.7, "unit": "%"},
      {"measurement": "conversion to modified G-NH2 (24 hr) (percent conversion) Pig plasma", "setting": "[5]; 1,000 μM G-NH2, plasma 90% in PBS", "result": 98.7, "unit": "%"},
      {"measurement": "conversion to modified G-NH2 (24 hr) (percent conversion) Pig plasma", "setting": "[5]; 10,000 μM G-NH2, plasma 90% in PBS", "result": "˜24.5%"},
      {"measurement": "CC50", "setting": "CEM cells", "result": "> 2000", "unit": "µM"},
      {"measurement": "EC50", "setting": "CEM cells", "result": "> 2000", "unit": "µM"},
      {"measurement": "no cytotoxicity at concentrations as high as", "setting": "CEM cells", "result": "1500 to 2000", "unit": "µM"},
      {"measurement": "Visible syncytia", "setting": "HIV (SF2 virus); 100 μM in boiled RPMI++", "result": "positive"},
      {"measurement": "Visible syncytia", "setting": "HIV (SF2 virus); 100 μM in normal RPMI++ (10% FCS)", "result": "negative"},
      {"measurement": "inhibition of replication and/or propagation of HIV by visual inspection", "setting": "HIV (SF2 virus); boiled fetal calf serum", "result": "did not"},
      {"measurement": "CC50", "setting": "MT-4 cells", "result": "> 2000", "unit": "µM"},
      {"measurement": "conversion of G-NH2 to modified G-NH2", "setting": "[6]; 6 hours", "result": "6-10%"},
      {"measurement": "conversion of G-NH2 to modified G-NH2", "setting": "[6]; 24 hours", "result": "18-32%"},
      {"measurement": "conversion to modified G-NH2 (24 hr) (percent conversion) Dialysed Pig plasma", "setting": "[7]; 18 μM G-NH2, 90% in PBS", "result": 99.8, "unit": "%"},
      {"measurement": "conversion to modified G-NH2 (24 hr) (percent conversion) Dialysed Pig plasma", "setting": "[7]; 100 μM G-NH2, 90% in PBS", "result": 99.8, "unit": "%"},
      {"measurement": "conversion to modified G-NH2 (24 hr) (percent conversion) Dialysed Pig plasma", "setting": "[7]; 1,000 μM G-NH2, 90% in PBS", "result": 99.8, "unit": "%"},
      {"measurement": "Percent conversion", "setting": "[7]; [9]", "result": 82.6, "unit": "%"},
      {"measurement": "μM formation", "setting": "[7]; [9]", "result": "1,652 μM"},
      {"measurement": "Percent conversion", "setting": "[7]; [10]", "result": 42.1, "unit": "%"},
      {"measurement": "μM formation", "setting": "[7]; [10]", "result": "1,684 μM"},
      {"measurement": "Percent conversion", "setting": "[7]; [11]", "result": 24.9, "unit": "%"},
      {"measurement": "μM formation", "setting": "[7]; [11]", "result": "1,494 μM"},
      {"measurement": "Percent conversion", "setting": "[7]; [12]", "result": 21.0, "unit": "%"},
      {"measurement": "μM formation", "setting": "[7]; [12]", "result": "1,680 μM"},
      {"measurement": "conversion to modified G-NH2 (24 hr) (percent conversion) Dialysed Pig plasma", "setting": "[7]; 10,000 μM G-NH2, 90% in PBS", "result": 24.7, "unit": "%"},
      {"measurement": "Percent conversion", "setting": "[7]; [13]", "result": 17.0, "unit": "%"},
      {"measurement": "μM formation", "setting": "[7]; [13]", "result": "1,700 μM"},
      {"measurement": "conversion of G-NH2 to Metabolite X", "setting": "[8]", "result": "unable to convert"}
    ]}
  ]
}
